Source: patent US20260176266A1, “PIPERIDINOPYRIMIDINE DERIVATIVE, PREPARATION METHOD THEREFOR AND USE THEREOF IN MEDICINE” (TUOJIE BIOTECH (SHANGHAI) CO., LTD., priority 2022, published 2026)

Key:
[1] = test system: MCF7 Palbo-R (palbociclib-resistant cells constructed on MCF7); assay: Inhibitory activity against tumor cells, CellTiter-Glo: MCF7 Palbo-R; assay type: cell-based; details: Homo sapiens, 168 h, 7 days treatment
Protocol: (§1) MCF7 (ATCC #HTB-22) and T47D (ATCC #HTB-133) breast cancer cells and PANC-1 (ATCC #CRL-1469) pancreatic cancer cells were purchased from ATCC. MDA-MB-231 (Cobioer #CBP60382), HCC1806 (Cobioer #CBP60373), and MDA-MB-468 (Cobioer #CBP60387) breast cancer cells, HCT-116 (Cobioer #CBP60028) colorectal cancer cells, and OCI-AML-3 (Cobioer #CBP60817) and MV-4-11 (Cobioer #CBP60522) leukemia cells were purchased from Nanjing Cobioer Biosciences Co., Ltd.
(§2) OCI-AML-3 was cultured in RPMI 1640 medium with 20% FBS; HCC1806 and T47D were cultured in RPMI 1640 medium with 10% FBS; MCF7, MDA-MB-231, MDA-MB-468, and PANC-1 were cultured in DMEM medium with 10% FBS; MV-4-11 was cultured in IMDM medium with 20% FBS; HCT-116 was cultured in MC′5A medium with 10% FBS.
(§3) Palbociclib-resistant cells were constructed on MCF7 parent cells, designated MCF7 Palbo-R, and the culture conditions were consistent with those of the parent cells. All tumor cells were cultured in a cell incubator at 37° C. with 5% CO2. The cells were seeded at corresponding cell densities (600 cells/well for MDA-MB-231; 500 cells/well for MDA-MB-468, PANC-1, and HCT-116; 200 cells/well for MCF7 and HCC1806; 800 cells/well for MCF7 Palbo-R; 3000 cells/well for OCI-AML-3 and MV-4-11) in 384-well plates and cultured overnight in the incubator. On the second day, the cells were treated with compounds. The maximum compound concentration was 10 μM and was 3-fold diluted to obtain 9 concentrations, each tested in duplicate, and the final concentration of DMSO was 0.1%. The cells continued to be cultured in the incubator, with MDA-MB-231, PANC-1, MDA-MB-468, OCI-AML-3, and MV-4-11 being treated with drugs for 5 days and HCC1806, MCF7, MCF7 Palbo-R, and HCT116 being treated with drugs for 7 days. Cell viability was tested using the Celltiter Glo assay kit (Promega), and the testing method was consistent with the operational method provided by the kit. Readings were taken using an Envision multimode microplate reader. Data were processed using GraphPad Prism 8, and IC50 was calculated. […]

CDK7/Cyclin H/MAT1 = CDK7/Cyclin H/MAT1 (Homo sapiens, UniProt P50613); assay: ADP-Glo kinase assay, CDK7; assay type: biochemical; details: for IC50: 80 nM CDK7/Cyclin H/MAT1, 70 μM ATP (Km), MBP, 60 min, read-out: inhibitory activity (IC50, nM) CDK7; for selectivity for CDK2/CDK7 compared with Janssen-01: from IC50 of Table 6, statement in words
Chain of CDK7/Cyclin H/MAT1 (P50613 whole entry, species assumed): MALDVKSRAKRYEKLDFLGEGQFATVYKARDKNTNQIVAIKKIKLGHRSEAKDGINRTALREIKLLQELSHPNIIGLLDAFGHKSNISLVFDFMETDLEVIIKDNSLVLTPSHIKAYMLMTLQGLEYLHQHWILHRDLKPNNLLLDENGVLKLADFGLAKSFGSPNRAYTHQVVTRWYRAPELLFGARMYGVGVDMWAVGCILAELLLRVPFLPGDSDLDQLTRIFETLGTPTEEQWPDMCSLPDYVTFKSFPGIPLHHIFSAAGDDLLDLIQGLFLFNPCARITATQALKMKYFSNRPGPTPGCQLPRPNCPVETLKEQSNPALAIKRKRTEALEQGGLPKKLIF
Chain of CDK7/Cyclin H/MAT1 (P51946 whole entry partner, species assumed): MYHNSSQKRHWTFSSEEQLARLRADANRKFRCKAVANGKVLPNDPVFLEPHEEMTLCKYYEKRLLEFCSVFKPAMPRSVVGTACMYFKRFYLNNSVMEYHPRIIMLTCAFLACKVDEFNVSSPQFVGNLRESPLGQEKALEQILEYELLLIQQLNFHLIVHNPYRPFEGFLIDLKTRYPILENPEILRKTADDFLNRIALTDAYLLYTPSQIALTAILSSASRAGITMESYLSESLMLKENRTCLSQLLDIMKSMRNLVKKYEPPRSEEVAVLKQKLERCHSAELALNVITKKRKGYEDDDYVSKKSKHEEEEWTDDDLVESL
Chain of CDK7/Cyclin H/MAT1 (P51948 whole entry partner, species assumed): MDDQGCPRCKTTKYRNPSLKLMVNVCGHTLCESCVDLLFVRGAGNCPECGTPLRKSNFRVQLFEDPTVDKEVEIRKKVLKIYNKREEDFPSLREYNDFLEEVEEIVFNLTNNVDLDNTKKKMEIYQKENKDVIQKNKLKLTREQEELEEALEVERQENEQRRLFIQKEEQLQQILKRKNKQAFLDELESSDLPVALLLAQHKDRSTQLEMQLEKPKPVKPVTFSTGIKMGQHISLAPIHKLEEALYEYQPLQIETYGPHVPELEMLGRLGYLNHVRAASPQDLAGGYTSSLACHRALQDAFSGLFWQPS
Protocol: (§4) The ADP-Glo kinase assay was used for testing the activity of CDKs. The compounds were diluted in 384-well plates using Echo. The starting concentration was 10 μM and was 3-fold diluted to obtain 10 concentration points, each tested in duplicate, and the final concentration of DMSO in the assay system was 1%. CDK solutions (the final concentrations were 16.5 nM CDK1/CyclinB, 1 nM CDK2/CyclinE1, 16.3 nM CDK4/CyclinD1, 11.5 nM CDK5/p25, 15.7 nM CDK6/CyclinD3, 80 nM CDK7/Cyclin H/MAT1, 15.3 nM CDK9/Cyclin T1, and 150 nM CDK12/CyclinK) prepared in assay buffer were added at 2.5 μL, and the enzymes and compounds were pre-incubated at room temperature for 10 min. ATP (the concentration was Km) & substrate solutions (20 μM ATP & 0.1 mg/mL Histone H1 Protein for CDK1/CyclinB, 15 μM ATP & 0.1 mg/mL Histone H1 Protein for CDK2/CyclinE1, 200 μM ATP & 0.2 mg/mL DYRKtide peptide for CDK4/CyclinD1, 10 μM ATP & 0.1 mg/mL Histone H1 Protein for CDK5/p25, 200 μM ATP & 0.1 mg/mL Histone H1 Protein for CDK6/CyclinD3, 70 μM ATP & 0.2 mg/mL MBP for CDK7/Cyclin H/MAT1, 60 μM ATP & 0.2 mg/mL PDKtide for CDK9/Cyclin T1, and 20 μM ATP & 80 μM pS7-CTD peptide for CDK12/CyclinK) prepared in assay buffer were added at 2.5 μL. After thorough mixing, the plates were incubated at room temperature, with CDK1/4/9/12/13 incubated for 120 min and CDK2/5/6/7 incubated for 60 min. ADP-Glo reagents were added at 4 μL, and the plates were incubated at room temperature for 40 min. Kinase detection reagents were added at 8 μL, and the plates were incubated at room temperature for 40 min. Readings were taken using an Envision multimode microplate reader. Data were processed using GraphPad Prism 8, and IC50 was calculated.
(§5) [formula] • X: the logarithm of the compound concentration; Y: % inhibition.

CDK4/CyclinD1 = CDK4/CyclinD1 (Homo sapiens, UniProt P11802); assay: ADP-Glo kinase assay, CDK4; assay type: biochemical; details: 16.3 nM CDK4/CyclinD1, 200 μM ATP (Km), DYRKtide peptide, 120 min; read-out: inhibitory activity (IC50, nM) CDK4
Chain of CDK4/CyclinD1 (P11802 whole entry, species assumed): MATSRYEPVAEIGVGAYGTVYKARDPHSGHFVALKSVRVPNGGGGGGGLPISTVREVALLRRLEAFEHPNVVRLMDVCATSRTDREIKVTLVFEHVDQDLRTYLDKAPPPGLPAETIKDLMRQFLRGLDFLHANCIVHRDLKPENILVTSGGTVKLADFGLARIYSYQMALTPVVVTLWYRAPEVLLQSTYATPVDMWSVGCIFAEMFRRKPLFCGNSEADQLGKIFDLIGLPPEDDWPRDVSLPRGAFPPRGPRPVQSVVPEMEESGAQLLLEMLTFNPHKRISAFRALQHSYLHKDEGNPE
Chain of CDK4/CyclinD1 (P24385 whole entry partner, species assumed): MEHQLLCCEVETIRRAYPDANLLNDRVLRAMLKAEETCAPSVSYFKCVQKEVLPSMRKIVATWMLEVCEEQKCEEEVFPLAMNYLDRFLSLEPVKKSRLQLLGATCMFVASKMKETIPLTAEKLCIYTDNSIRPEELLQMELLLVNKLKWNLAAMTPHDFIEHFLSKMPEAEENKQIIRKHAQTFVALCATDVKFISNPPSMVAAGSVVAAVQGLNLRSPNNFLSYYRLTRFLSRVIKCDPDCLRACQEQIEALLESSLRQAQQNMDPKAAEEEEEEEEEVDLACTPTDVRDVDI
Protocol: as §4, with “After thorough mixing, the plates were incubated at room temperature, with CDK1/4/9/12/13 incubated for 120 min and CDK2/5/6/7 incubated for 60 min. ADP-Glo reagents were added at 4 μL, and the plates were incubated at room temperature for 40 min. Kinase detection reagents were added at 8 μL, and the plates were incubated at room temperature for 40 min.” left out, “calculated. […]” for “calculated.”

CDK12/CyclinK = CDK12/CyclinK (Homo sapiens, UniProt Q9NYV4); assay: ADP-Glo kinase assay, CDK12; assay type: biochemical; details: 150 nM CDK12/CyclinK, 20 μM ATP (Km), pS7-CTD peptide, 120 min; read-out: inhibitory activity (IC50, nM) CDK12
Chain of CDK12/CyclinK (Q9NYV4 whole entry, species assumed): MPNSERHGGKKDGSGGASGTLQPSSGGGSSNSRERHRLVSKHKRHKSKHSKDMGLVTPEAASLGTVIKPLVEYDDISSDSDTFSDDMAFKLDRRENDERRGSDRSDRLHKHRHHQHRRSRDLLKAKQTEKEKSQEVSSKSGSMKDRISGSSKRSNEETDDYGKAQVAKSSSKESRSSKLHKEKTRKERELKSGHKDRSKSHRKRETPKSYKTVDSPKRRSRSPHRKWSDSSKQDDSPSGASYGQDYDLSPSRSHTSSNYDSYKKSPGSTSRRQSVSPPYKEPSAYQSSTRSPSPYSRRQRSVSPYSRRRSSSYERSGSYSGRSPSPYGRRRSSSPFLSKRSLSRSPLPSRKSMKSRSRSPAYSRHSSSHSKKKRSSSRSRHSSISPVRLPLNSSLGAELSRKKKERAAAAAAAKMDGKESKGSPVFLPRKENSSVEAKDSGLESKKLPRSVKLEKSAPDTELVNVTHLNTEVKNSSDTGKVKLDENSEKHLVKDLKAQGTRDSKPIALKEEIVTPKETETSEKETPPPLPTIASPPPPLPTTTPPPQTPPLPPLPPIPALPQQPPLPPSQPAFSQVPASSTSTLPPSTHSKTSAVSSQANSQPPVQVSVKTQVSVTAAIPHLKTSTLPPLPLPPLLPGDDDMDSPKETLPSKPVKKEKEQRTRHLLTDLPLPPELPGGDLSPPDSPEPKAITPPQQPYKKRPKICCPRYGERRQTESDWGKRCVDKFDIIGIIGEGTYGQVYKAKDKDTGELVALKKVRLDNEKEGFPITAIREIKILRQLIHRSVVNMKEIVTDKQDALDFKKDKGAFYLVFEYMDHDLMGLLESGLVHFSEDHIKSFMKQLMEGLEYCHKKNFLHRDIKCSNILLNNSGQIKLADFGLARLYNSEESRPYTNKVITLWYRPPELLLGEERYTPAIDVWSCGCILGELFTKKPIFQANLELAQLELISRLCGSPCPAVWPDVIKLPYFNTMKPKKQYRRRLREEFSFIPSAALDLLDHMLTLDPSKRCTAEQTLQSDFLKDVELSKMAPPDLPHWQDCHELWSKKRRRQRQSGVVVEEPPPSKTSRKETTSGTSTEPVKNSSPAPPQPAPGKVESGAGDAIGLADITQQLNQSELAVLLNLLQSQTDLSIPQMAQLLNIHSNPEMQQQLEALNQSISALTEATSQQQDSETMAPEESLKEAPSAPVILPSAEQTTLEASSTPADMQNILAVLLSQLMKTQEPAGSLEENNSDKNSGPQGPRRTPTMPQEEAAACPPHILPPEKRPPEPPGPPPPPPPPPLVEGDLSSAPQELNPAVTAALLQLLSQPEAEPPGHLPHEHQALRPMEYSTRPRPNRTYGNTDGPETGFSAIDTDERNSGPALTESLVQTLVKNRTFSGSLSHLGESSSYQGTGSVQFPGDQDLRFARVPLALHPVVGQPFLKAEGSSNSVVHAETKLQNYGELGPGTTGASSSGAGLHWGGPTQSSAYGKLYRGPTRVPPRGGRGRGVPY
Chain of CDK12/CyclinK (O75909 whole entry partner, species assumed): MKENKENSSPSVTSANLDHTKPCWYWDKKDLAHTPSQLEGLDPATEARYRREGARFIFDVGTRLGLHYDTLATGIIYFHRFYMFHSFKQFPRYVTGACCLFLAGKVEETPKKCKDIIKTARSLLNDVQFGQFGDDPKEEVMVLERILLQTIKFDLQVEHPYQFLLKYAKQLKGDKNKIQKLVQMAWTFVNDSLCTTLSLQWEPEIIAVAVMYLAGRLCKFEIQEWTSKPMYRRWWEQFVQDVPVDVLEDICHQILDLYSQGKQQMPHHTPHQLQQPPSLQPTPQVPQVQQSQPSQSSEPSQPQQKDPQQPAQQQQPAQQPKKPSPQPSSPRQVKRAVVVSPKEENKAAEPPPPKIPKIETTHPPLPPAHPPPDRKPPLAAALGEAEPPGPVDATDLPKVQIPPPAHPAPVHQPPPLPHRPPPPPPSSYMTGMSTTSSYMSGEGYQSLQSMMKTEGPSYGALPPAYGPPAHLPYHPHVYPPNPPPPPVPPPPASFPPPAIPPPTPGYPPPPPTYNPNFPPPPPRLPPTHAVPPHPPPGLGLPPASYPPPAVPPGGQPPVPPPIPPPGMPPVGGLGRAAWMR
Protocol: as §4, with “After thorough mixing, the plates were incubated at room temperature, with CDK1/4/9/12/13 incubated for 120 min and CDK2/5/6/7 incubated for 60 min. ADP-Glo reagents were added at 4 μL, and the plates were incubated at room temperature for 40 min. Kinase detection reagents were added at 8 μL, and the plates were incubated at room temperature for 40 min.” left out, “calculated. […]” for “calculated.”

[2] = test system: MDA-MB-231 breast cancer cells; assay: Inhibitory activity against tumor cells, CellTiter-Glo: MDA-MB-231; assay type: cell-based; details: Homo sapiens, 120 h, MDA-MB-231, 5 days treatment
Protocol: as §1, §2, §3

[3] = test system: OVCAR3 ovarian cancer cells; assay: Inhibitory activity against ovarian cancer cells (OVCAR3), CellTiter-Glo viability; assay type: cell-based; details: Homo sapiens, OVCAR-3, 120 h, OVCAR3, 5 days treatment
Protocol: OVCAR3 ovarian cancer cells were cultured in a cell incubator at […] with 5% CO2 using RPMI 1640 medium with […]. On the first day, the cells were plated in a 96-well plate at a cell concentration of 2500 cells/well and cultured overnight in the incubator. On the second day, the cells were treated with compounds. The maximum compound concentration was 10 μM and was 3-fold diluted to obtain 9 concentrations, and the final concentration of DMSO was 0.1%. After the cells were cultured in the incubator for another 5 days, cell viability was tested using the Celltiter Glo assay kit (Promega), and the testing method was consistent with the operational method provided by the kit. Data were processed using GraphPad Prism 8, and IC50 was calculated.
as §5

CDK6/CyclinD3 = CDK6/CyclinD3 (Homo sapiens, UniProt Q00534); assay: ADP-Glo kinase assay, CDK6; assay type: biochemical; details: 15.7 nM CDK6/CyclinD3, 200 μM ATP (Km), Histone H1, 60 min; read-out: inhibitory activity (IC50, nM) CDK 6
Chain of CDK6/CyclinD3 (Q00534 whole entry, species assumed): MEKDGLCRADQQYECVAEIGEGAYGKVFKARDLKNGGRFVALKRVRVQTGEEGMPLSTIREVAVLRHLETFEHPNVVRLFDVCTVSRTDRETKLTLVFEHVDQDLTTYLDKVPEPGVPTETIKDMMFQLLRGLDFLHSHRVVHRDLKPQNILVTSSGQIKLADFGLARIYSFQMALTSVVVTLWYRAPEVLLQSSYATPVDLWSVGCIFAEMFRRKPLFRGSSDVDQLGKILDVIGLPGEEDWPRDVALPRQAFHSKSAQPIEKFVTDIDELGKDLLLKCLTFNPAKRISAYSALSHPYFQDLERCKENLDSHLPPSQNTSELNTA
Chain of CDK6/CyclinD3 (P30281 whole entry partner, species assumed): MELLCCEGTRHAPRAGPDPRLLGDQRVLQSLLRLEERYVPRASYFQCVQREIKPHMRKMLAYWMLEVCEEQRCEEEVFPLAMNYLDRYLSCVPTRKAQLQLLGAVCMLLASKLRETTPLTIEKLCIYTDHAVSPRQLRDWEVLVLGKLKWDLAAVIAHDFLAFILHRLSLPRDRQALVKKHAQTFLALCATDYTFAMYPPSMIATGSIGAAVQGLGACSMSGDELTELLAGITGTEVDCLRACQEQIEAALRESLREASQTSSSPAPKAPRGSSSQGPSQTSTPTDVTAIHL
Protocol: as §4, with “After thorough mixing, the plates were incubated at room temperature, with CDK1/4/9/12/13 incubated for 120 min and CDK2/5/6/7 incubated for 60 min. ADP-Glo reagents were added at 4 μL, and the plates were incubated at room temperature for 40 min. Kinase detection reagents were added at 8 μL, and the plates were incubated at room temperature for 40 min.” left out, “calculated. […]” for “calculated.”

Compound: C[C@H](Nc1ncc2c(n1)CN(C(=O)N[C@H](CN(C)C)c1ccccc1)[C@H](C)C2)c1ccccn1 [Example 6, (R)—N—((S)-2-(Dimethylamino)-1-phenylethyl)-6-methyl-2-(((S)-1-(pyridin-2-yl)ethyl)amino)-5,8-dihydropyrido[3,4-d]pyrimidine-7(6H)-carboxamide]
- IC50 [1]: 24.6 nM
- IC50 (CDK7/Cyclin H/MAT1): 28.4 nM
- selectivity for CDK2/CDK7 compared with Janssen-01 (CDK7/Cyclin H/MAT1): significantly better selectivity for CDK2/CDK7 than Janssen-01
- IC50 (CDK4/CyclinD1): > 10000 nM
- IC50 (CDK12/CyclinK): > 10000 nM
- IC50 [2]: 23.2 nM
- IC50 [3]: 27.7 nM
- IC50 (CDK6/CyclinD3): > 10000 nM

Compound: C[C@@H]1Cc2cnc(NCc3ccn(C)n3)nc2CN1C(=O)N[C@H](CN(C)C)c1ccccc1 [Example 2, (R)—N—((S)-2-(Dimethylamino)-1-phenylethyl)-6-methyl-2-(((1-methyl-TH-pyrazol-3-yl)methyl)amino)-5,8-dihydropyrido[3,4-d]pyrimidine-7(6H)-carboxamide]
- IC50 [1]: 40.6 nM
- IC50 (CDK7/Cyclin H/MAT1): 21.9 nM
- selectivity for CDK2/CDK7 compared with Janssen-01 (CDK7/Cyclin H/MAT1): significantly better selectivity for CDK2/CDK7 than Janssen-01
- IC50 (CDK4/CyclinD1): > 10000 nM
- IC50 (CDK12/CyclinK): > 10000 nM
- IC50 [2]: 25.4 nM
- IC50 [3]: 24.2 nM
- IC50 (CDK6/CyclinD3): > 10000 nM
